Columns and labels:
[1] = system: platelet protein palmitoylation; test: Incorporation of [3H]-palmitate into platelet proteins; type: cell-based; conditions: 100 μM compound; 20 μM or 200 μM SFLLRN
Procedure: Platelets were labeled with [^3H]-palmitate for 2 hours in the absence (lanes 1, 2, and 3) or presence (lanes 4, 5, and 6) of 100 μM JF081204{5C} for 2 hours. Labeled platelets were then incubated with 0 μM ([…]), 20 μM (lanes 2 and 5), or 200 μM SFLLRN (lanes 3 and 6). Platelet samples were lysed, separated by SDS-PAGE, Western blotted, and visualized with a tritium imager screen (Panel a). The activation of platelets by SFLLRN led to an increase incorporation of [^3H]-palmitate into platelet proteins, whereas the presence of JF081204{5C} inhibited this activation-dependent [^3H]-palmitate incorporation (Panel b). Western blot membrane from panel (a) was stained with Ponceau S to visualize proteins in the platelet lysates.
The incorporation of [^3H]-palmitate into platelet intracellular proteins was examined to determine the effect of JF081204{5C} on platelet protein palmitoylation. […] Exposure of platelets to either 20 μM or 200 μM SFLLRN increased the intensity of the labeling. Incubation of platelets with 100 μM of JF081204{5C} inhibited the increase in [^3H]-palmitate incorporation induced by either 20 μM or 200 μM SFLLRN.

[2] = system: PGE1-induced cAMP levels in platelets; test: Augmentation of PGE1-induced cAMP levels in platelets; type: cell-based, human; conditions: no single concentration
Procedure: One frequent target of anti-platelet agents is phosphodiesterase III (PDE III). […] The assay is performed as described by Liao et al., 1998, Eur J Pharmacol 349,107-114, incorporated herein by reference. Briefly, aliquots of PRP are exposed to increasing concentrations of the agent for 20 minutes. The PRP is then challenged with 1 μM PGE1 for 2 min The reaction is stopped by adding 10 mM EDTA, followed immediately by boiling for 2 min. The mixture is cooled to 4° C. and the precipitated protein is pelleted. cAMP content in the supernatant is quantitated using an enzyme immunoassay kit (Pharmacia-Amersham, N.J.) according to the instructions of the manufacturer.
In order to assess whether the compounds useful according to the invention might act through inhibition phosphodiesterase III, each was tested for its effect on PGE1-induced cAMP increase. Determination of platelet cAMP levels was performed as described by Liao et al., 1998, supra. Aliquots of PRP were exposed to increasing concentrations of the indicated compounds for 20 min. PRP was then challenged with 1 μM PGE1 for 2 min. The reaction was stopped with the addition of 10 mM EDTA followed immediately by boiling for 2 min. The mixture was then cooled to 4° C. and the precipitated protein was pelleted. Cyclic AMP content in the supernatant was then quantified using an enzyme immunoassay kit (Pharmacia-Amersham, N.J.) according to the instructions of the manufacturer.

platelets = test: F-actin assembly (FITC-phalloidin, flow cytometry); type: cell-based, human; conditions: agonist SFLLR
Excerpt: To determine whether or not the effects of the pyridazinone compound were limited to inhibition of alpha-granule secretion, the ability of the compound to inhibit F-actin assembly and αIIbβ3 activation was examined. F-actin assembly was detected using FITC-phalloidin and quantified by flow cytometry (Winokur et al., 1995, Blood 85, 1796-804; Oda et al., 1992, Blood 79, 920-7).

human platelet PDE5 = molecular target: T1, human platelet PDE5 (Homo sapiens, UniProt O76074); test: Phosphodiesterase inhibition, PDE5; type: biochemical; conditions: up to 1 μM
T1 construct: human platelet PDE5; from tissue; host or cells: human platelets
Procedure: Intracellular cAMP generated by adenylyl cyclase in platelets is actively hydrolyzed by phosphodiesterase. […] Human platelets express PDE2, PDE3, and PDE5. Therefore, the compound was tested for its inhibitory effect on these phosphodiesterases using methods as described in Example 3.

[3] = listed as Pyridazinone compound

Row | Structure (SMILES) | Increase in [3H]-palmitate incorporation induced by SFLLRN [1] | Effect on PGE1-stimulated cAMP levels in platelets [2] | Effect on PGE1-stimulated cAMP levels in platelets [2, 3] | SFLLR-induced F-actin assembly / cytoskeleton rearrangement (platelets) | Inhibition of human platelet PDE5 (human platelet PDE5; [3]) | Inhibition of human platelet PDE5 (human platelet PDE5; listed as pyridazinone compound)
1 | CCCCCn1c2c(c(=N)c3ccccc31)CCC2 [JF081204{5C}] | inhibited | – | – | – | – | –
2 | CC1CC(=O)NN=C1c1ccc(N)c([N+](=O)[O-])c1 (stereo not drawn) [6-(4-Amino-3-nitro-phenyl)-5-methyl-4,5-dihydro-2H-pyridazin-3-one] | – | augments | augment | interferes | No significant inhibition | little inhibition

Reference: patent US20070060605A1, “Compositions and methods for inhibiting platelet activation and thrombosis” (priority 2001, published 2007)
